Source: US20110237658A1, “COMPOUND AND METHOD FOR THE TREATMENT OF PAIN” (KRISHANI BIOSCIENCES (P) LTD, priority 2010, published 2011)

System: spinal nerve ligation model for neuropathic pain in rats
Assay: Spinal nerve ligation (Chung) model of neuropathic pain, Von Frey test
Type: in vivo
Conditions: 150 mg/kg IP once daily from study day 14 to 21; 2 hours post-treatment on study days 14 and 21; male SD rats
From the text: Experimental animals were male SD rats with a starting weight of 230-250 grams. Total number of animals were n=90 for surgery and n=60 after selection. The animals were caged in groups of 3 in a temperature and humidity controlled area. They were maintained on a 12 hr light/dark cycle and had ad libitum access to food and water.
Neuropathic pain inducement was done by following principles of Chung induced model. The SD rats were anesthetized using ketamine/xylazine sodium. The rats were shaved and placed in prone position for surgery. The L5-L6 spinal nerves were surgically litigated. The rats were returned to their cages for recuperation and recovery under comfortable warm conditions using heat lamps.
After seven days of surgery a pre selection was performed. Animals that indicate signs of post operative pain were to be selected to proceed. Pain is detected by observing when one or more of the criteria are met as follows. Licking of the operated paw, accompanied by gentle biting or pulling on the nails with the mouth; placing the leg in the air; bearing weight on the side contra-lateral to the nerve injury; deformities of the hind paw and abnormal posture and walking; weakness of the left hind paw. […] However, the animal must be able to move its leg to ensure that the L4 spinal nerve is intact. If the animal cannot move its leg, it was excluded from the study. […]

In the case of `CC(OC(=O)CCCC[C@@H]1CCSS1)OC(=O)NC(C)C(C)COC(=O)c1ccccc1` (stereo partly shown) [final compound of formula 1], the “efficacy as reflected in the parameters of mechanical allodynia (Von Frey)” value is reported as “effective”.
